Measurements: patent US20240408082A1, “METHODS FOR TREATING CANCERS AND TUMORS” (BEYONDSPRING PHARMACEUTICALS, INC., priority 2021, published 2024)
“And” between values parts separate entries of the source, which are not always exact repeats. Identical values can stand only once.

How the values were obtained:
Assay type in all cases: cell-based
melanoma models = assay: 3D clonogenic assay, Example 2, melanoma models; conditions: n=9 models
Description: (§1) The present study investigated plinabulin for anticancer activity ex vivo in 68 out of 71 originally planned patient-derived xenograft (PDX) models representing major cancer types. Experiments were performed using a 3D clonogenic assay in a 96-well format with colony count based on image analysis as a read-out. By using this assay, the investigational compound was assessed for the ability to inhibit anchorage independent growth and ex vivo colony formation of tumor cells in semi-solid medium.
(§2) A master stock solution of plinabulin was prepared by dissolving the compound in DMSO at a concentration of 9.9 mM. Working stock solutions were prepared by diluting the master stock solution with DMSO to a concentration of 0.99 mM (330-fold the highest test concentration). Small aliquots of the master and working stock were stored at −20° C. […]
(§3) Plinabulin was investigated in 68 PDX models representing a number of cancer types. […] The percentage of viable cells was determined in a Neubauer-hemocytometer using trypan blue exclusion. […]
(§4) The clonogenic assay was carried out in a 96 well plate format using ultra low attachment plates. […] Cultures were incubated at 37° C. and 7.5% CO2 in a humidified atmosphere 13 days in total and monitored closely for colony growth using an inverted microscope. […]

[1] = system: Triple negative breast cancer (MAXFTN); assay: 3D clonogenic assay, Example 2, triple negative breast cancer; conditions: based on IC70, FIG. 7
Description: as §1, §2, §3, §4

[2] = system: 68 PDX models of various histotypes; assay: 3D clonogenic assay, Example 2, all PDX models
Description: as §1
A master stock solution of plinabulin was prepared by dissolving the compound in DMSO at a concentration of 9.9 mM. Working stock solutions were prepared by diluting the master stock solution with DMSO to a concentration of 0.99 mM (330-fold the highest test concentration). Small aliquots of the master and working stock were stored at −20° C. On each day of an experiment, an aliquot of the working stock was used and stored at room temperature prior to and during treatment. All liquid handling steps were performed using a Tecan Freedom EVO 200 robotic platform. First, serial dilutions of the working stock solution were done in DMSO. The DMSO dilutions were then diluted 1:22 into the cell culture medium (IMDM, supplemented with 20% (v/v) fetal calf serum, and 50 μg/ml gentamicin) in an intermediate dilution plate. Finally, 10 μl taken from the intermediate dilution plate were transferred to 140 μl/well of the final assay plate. Thus, the DMSO working stock was diluted at 1:330, and the DMSO concentration in the assay was 0.3% v/v in all wells.
Plinabulin was investigated in 68 PDX models representing a number of cancer types. Tumors were passaged as subcutaneous xenografts in NMRI nu/nu mice. At a tumor volume of 400-1000 mm^3 tumor-bearing mice were euthanized and tumors were collected under sterile conditions without delay according to relevant SOPs and the relevant animal welfare guidelines published by the FELASA and the GV-SOLAS. Tumors were mechanically disaggregated and subsequently incubated with an enzyme cocktail consisting of collagenase type IV (41 U/ml), DNase I (125 U/ml), hyaluronidase type III (100 U/ml), and dispase II (1 U/ml) in RPMI 1640 medium (Life Technologies) at 37° C. for 60-120 minutes. Cells were passed through sieves of 100 μm and 40 μm mesh size (Cell Strainer, BD Falcon™), and washed with RPMI 1640 medium (Biochrom). The percentage of viable cells was determined in a Neubauer-hemocytometer using trypan blue exclusion. Aliquots of the cells were frozen down and stored in a liquid nitrogen vapor phase. On each day of an experiment, a frozen aliquot of tumor cells was thawed and used for the preparation of assay plates.
The clonogenic assay was carried out in a 96 well plate format using ultra low attachment plates. For each test, cells were prepared as described above (Section 6.6) and assay plates were prepared as follows: each test well contained a layer of semi-solid medium with tumor cells (50 μl), and a second layer of medium supernatant with or without test compound (100 μl). The cell layer consisted of 2.5-12.5·10^3 tumor cells per well, which were seeded on day 0 (d0) in 50 μl/well cell culture medium (IMDM, supplemented with 20% (v/v) fetal calf serum, 50 μg/ml gentamicin, and 0.4% (w/v) agar). After 24 h, the soft-agar layer was covered with 90 μl of the same culture medium without agar. Seven days after seeding 10 μl of test compound or control medium was added, and left on the cells for 24 h. Every 96 well plate included six DMSO-treated control wells and drug-treated wells in duplicate at 9 concentrations. After the incubation time of 24 h the supernatant (90 μl medium without agar +10 μl compound/control) was changed against drug free medium and incubated until the end of the study. Cultures were incubated at 37° C. and 7.5% CO2 in a humidified atmosphere 13 days in total and monitored closely for colony growth using an inverted microscope. […]

osteosarcoma = assay: 3D clonogenic assay, Example 2, osteosarcoma; conditions: n=3 models
Description: as §1, §2, §3, §4

CC(C)(C)c1[nH]cnc1/C=c1\[nH]c(=O)/c(=C/c2ccccc2)[nH]c1=O [plinabulin, (3Z,6Z)-3-Benzylidene-6-{[5-(2-methyl-2-propanyl)-1H-imidazol-4-yl]methylene}-2,5-piperazinedione]
geometric mean absolute IC70 (melanoma models): > 3000 nM
IC50 (melanoma models; read-out: geom. mean abs. IC50): 1370 nM
sensitivity to plinabulin (in words) [1]: sensitive
Sensitive Tumors, Number, Based on Abs. IC70 ([2]; 68 PDX models): 9 out of 68 and 9/68
Sensitive Tumors, Number, Based on Rel. IC70 ([2]; 68 PDX models): 27/68
Sensitive Tumors, Percentage, Based on Abs. IC50 ([2]; 68 PDX models): 35%
Sensitive Tumors, Percentage, Based on Abs. IC70 ([2]; 68 PDX models): 13%
Sensitive Tumors, Percentage, Based on Rel. IC50 ([2]; 68 PDX models): 50%
Sensitive Tumors, Percentage, Based on Rel. IC70 ([2]; 68 PDX models): 40%
geometric mean absolute IC70, tumor colony formation ([2]; all 68 PDX models, treatment from day 7 to day 8): 1780 nM
IC50 ([2]; all 68 PDX models, treatment from day 7 to day 8, read-out: geometric mean absolute IC50, tumor colony formation): 600 nM
Fold difference of IC50 of sensitive tumors vs. all tumors, Based on Abs. IC50 ([2]; geometric means): 10.7 fold
Fold difference of IC50 of sensitive tumors vs. all tumors, Based on Rel. IC50 ([2]; geometric means): 3.4 fold
Fold difference of IC70 of sensitive tumors vs. all tumors, Based on Abs. IC70 ([2]; geometric means): 27.1 fold
Fold difference of IC70 of sensitive tumors vs. all tumors, Based on Rel. IC70 ([2]; geometric means): 4.6 fold
inhibition of tumor colony formation (in words) ([2]; sigmoidal concentration-effect curves): inhibited tumor colony formation in a concentration-dependent manner in almost all cell lines
geom. mean abs. IC70 (osteosarcoma): 624 nM
IC50 (osteosarcoma; read-out: geom. mean abs. IC50): 117 nM
